Results published in patent publication US12594281B2, “Pharmaceutical dosage forms and methods of use” (EMALEX BIOSCIENCES, INC., priority 2024, dated 2026).
Several values for one entry are separate records, joined by “and”; a condition that tells them apart may be missing. Equal entries are not always repeated. Where two headings read alike, the source gives them in different places.

Legend:
[1] = target: ^3H-Spip binding site (Homo sapiens, UniProt P14416); settings: read-out: Ki ^3H-Spip; cited from earlier work
[2] = target: ^3H-23390 binding site (Homo sapiens, UniProt P21728); settings: read-out: Ki ^3H-23390; cited from earlier work
[3] = cited from earlier work
[4] = Phase 1 absorption, metabolism and excretion study of [14C]-ecopipam, single oral capsule dose; type: in vivo, human
Source text: Healthy subjects of any ethnic origin, aged between 35 and 55 years, inclusive, with a body mass index between 18.0 and 30.0 kg/m^2, inclusive, were selected for the study.

[5] = Clinical drug-drug interaction study with divalproate sodium, general UGT inhibitor (EBS-101-HV-102); type: in vivo, human; settings: divalproate sodium co-administered with oral ecopipam
Source text: (§1) The results from these studies are summarized in Table 7 below along with clinical recommendations.

[6] = Phase 2 exposure-response for efficacy in Tourette's Disorder; type: in vivo, human; settings: logistic regression model
[7] = Exposure-response analyses for safety (sedation, QTc); set-up: species or system human; settings: in vivo
Source text: Exposure-response analyses have been conducted for safety using sedation as an endpoint and cardiac safety (QTc).

[8] = Thorough QT study with C-QT analysis (EBS-101-HV-105); type: in vivo, human; settings: for 10 msec increase in ΔΔQTcF interval: primary model
Method: A randomized, double-blind, single dose, 4-way crossover thorough QT study was conducted with an open-label active control (EBS-101-HV-105, 2024).
The primary endpoint for this study was pre-specified to be based on C-QT analysis using the methods outlined in the white paper (Garnett C, 2018) (Garnett C B. P., 2018).

[9] = Clinical drug-drug interaction study with rifampicin (EBS-101-HV-106); type: in vivo, human; settings: rifampicin co-administered with oral ecopipam
Source text: as §1

[10] = BCS solubility of Ecopipam HCl in pH buffers and bio-relevant media; type: physicochemical; settings: for solubility at 24 h: 37 °C, thermodynamic from solid; for Solubility / Purity at 24 hours in solubility test: 37° C.
Method: Solubility and final pH were the average of three parallel values. Purity was that of 24 hours. N/A means not performed.

[11] = minipig, in vivo
Source text: (§2) The minipigs were 4-5 months old with a weight range within 10-15 kg at dosing. 3 male animals were used.
(§3) The concentration-time data were normalized for differences in dose.

[12] = Clinical drug-drug interaction study with mefenamic acid, specific UGT1A9 inhibitor (EBS-101-HV-102); type: in vivo, human; settings: mefenamic acid co-administered with oral ecopipam
Source text: as §1

[13] = Pharmacokinetics of sublingual vs oral tablet in minipigs
Source text: as §2, §3

[14] = single oral dose 200 mg, fasted
[15] = single oral dose 200 mg [14C]-ecopipam HCl
[16] = single dose of ecopipam 537.6 mg
[17] = after single oral dose of [14C]-ecopipam HCl
[18] = minipig, dose-normalized, Zydis ODT 25 mg sublingual vs IR tablet 50 mg oral (ecopipam HCl)

Chain of ^3H-23390 binding site (P21728 whole entry): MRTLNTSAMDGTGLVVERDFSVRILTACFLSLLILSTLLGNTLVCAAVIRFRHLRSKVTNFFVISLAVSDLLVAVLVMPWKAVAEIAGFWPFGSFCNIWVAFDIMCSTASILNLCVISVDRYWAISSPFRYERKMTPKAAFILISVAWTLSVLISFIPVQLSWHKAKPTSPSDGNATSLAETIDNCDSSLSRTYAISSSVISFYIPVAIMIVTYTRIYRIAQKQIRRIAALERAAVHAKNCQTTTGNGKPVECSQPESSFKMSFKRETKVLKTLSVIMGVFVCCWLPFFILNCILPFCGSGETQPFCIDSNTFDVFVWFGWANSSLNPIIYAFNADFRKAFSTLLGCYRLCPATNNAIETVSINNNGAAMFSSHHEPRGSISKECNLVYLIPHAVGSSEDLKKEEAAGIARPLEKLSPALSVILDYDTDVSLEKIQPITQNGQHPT
Chain of ^3H-Spip binding site (P14416 whole entry): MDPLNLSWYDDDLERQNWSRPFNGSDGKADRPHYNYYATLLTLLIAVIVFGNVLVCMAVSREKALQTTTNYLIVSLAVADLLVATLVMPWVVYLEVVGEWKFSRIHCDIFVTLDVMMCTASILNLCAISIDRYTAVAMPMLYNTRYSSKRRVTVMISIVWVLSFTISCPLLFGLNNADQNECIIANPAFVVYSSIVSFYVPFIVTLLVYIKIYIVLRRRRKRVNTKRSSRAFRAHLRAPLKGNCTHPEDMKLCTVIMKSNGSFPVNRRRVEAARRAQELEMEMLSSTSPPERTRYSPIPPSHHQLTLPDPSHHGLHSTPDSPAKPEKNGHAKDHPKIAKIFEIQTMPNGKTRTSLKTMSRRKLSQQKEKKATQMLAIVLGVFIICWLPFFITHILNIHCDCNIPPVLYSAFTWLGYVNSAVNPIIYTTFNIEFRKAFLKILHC

Structure (SMILES): Cc1cc2c(cc1O)C1c3ccccc3CCC1N(C)CC2 (stereo not drawn) [CH2/1/trans/CH3/OH]
- Ki [1]: 7.2 µM
- Ki [2]: 0.119 µM

Structure (SMILES): COc1cc2c(cc1O)C1c3ccccc3CCC1N(C)CC2 (stereo not drawn) [CH2/1/cis/CH3O/OH]
- Ki [1]: > 100 µM
- Ki [2]: 6.45 µM

Structure (SMILES): CN1CCc2cc(Cl)c(N)cc2C2c3ccccc3CCC21 (stereo not drawn) [CH2/1/trans/Cl/NH2]
- CAR (MED) ([3]; po): 3 (po)
- Ki [1]: 4.17 µM
- Ki [2]: 0.07 µM

Structure (SMILES): CN1CCc2cc(Cl)c(O)cc2[C@H]2c3ccccc3CC[C@@H]21.Cl [[^14C]-ecopipam HCl]
- Median time of the maximum observed concentration of total radioactivity in whole blood ([4]; single oral dose 200 mg): 2.00 hours postdose
- Arithmetic mean radioactivity recovered in feces [4, 14]: 8.27%
- Arithmetic mean radioactivity recovered in urine [4, 14]: 83.3%

Structure (SMILES): CN1CCc2cc(Cl)c(O)cc2C2c3ccccc3CC21 (stereo not drawn) [CH2/0/trans/Cl/OH]
- Ki [1]: 2.6 µM
- Ki [2]: 0.01 µM

Structure (SMILES): COc1cc2c(cc1O)C1c3ccccc3CCC1N(C)CC2 (stereo not drawn) [CH2/1/trans/CH3O/OH]
- CAR (MED) ([3]; po): 30 (po);
- CAR (MED) ([3]; sc): 0.3-1 (sc)
- Ki [1]: 2.5 µM
- Ki [2]: 0.023 µM

Structure (SMILES): CN1CCc2ccc(O)cc2C2c3ccccc3CCC21 (stereo not drawn) [CH2/1/trans/H/OH]
- Ki [1]: 3.5 µM
- Ki [2]: 0.03 µM

Structure (SMILES): COc1cc2c(cc1O)CCN(C)C1CCCc3ccccc3C21 (stereo not drawn) [CH2/2/trans/HO/CH3O]
- CAR (MED) ([3]; sc): 10 (sc)
- Ki [1]: > 100 µM
- Ki [2]: 7.73 µM

Structure (SMILES): CN1CCc2cc(Cl)c(O)cc2[C@H]2c3ccccc3CC[C@@H]21 [ecopipam, (−)-trans-6,7,7a,8,9,13b-hexahydro-3-chloro-2-hydroxy-N-methyl-5H-benzo [d]-naphtho-[2,1-b]azepine]
- Increase in AUC∞ [5]: 40853 glucuronide, a ~2.1x increase
- Increase in odds of being a responder at 12 weeks per 100 unit increase in combined steady-state AUC of ecopipam and EBS-101-40853 [6]: 6.8%
- half-life ([4]; male, human, plasma, single oral dose 200 mg [14C]-ecopipam HCl, read-out: Geometric mean apparent terminal elimination half-life (t½) of analyte (converted)): 17.3 h
- CL renal ([4]; male, human, urine, single oral dose 200 mg [14C]-ecopipam HCl, read-out: Geometric mean renal clearance (converted)): 4.73 mL/min
- Share of the radiolabeled dose found as ecopipam in plasma ([4]; oral systemic administration): about 1.69%
- Median time of the maximum observed concentration of analyte in plasma [4, 15]: 2.00 hours postdose
- Percentage of dose excreted in urine as analyte (geometric mean) [4, 15]: < 1%
- Unchanged compound in feces, share of the total administered dose [4, 15]: 6%
- Exposure-response relationship for QTc [7]: exposure-response relationship
- Relationship between plasma Cmax or AUCinf and choice reaction time or visual analogue scale for sedation [7]: no relationship
- 10 msec increase in ΔΔQTcF interval ([8]; single dose ecopipam 179.2 mg + a general UGT inhibitor): cannot be ruled out
- 10 msec increase in ΔΔQTcF interval ([8]; single dose ecopipam 179.2 mg): can be ruled out
- Effect on QTcF [8, 16]: increase
- Predicted increase in ΔΔQTcF interval [8, 16]: up to 20.4 msec
- Effect on HR, QRS, or PR intervals ([8]; single doses 179.2 mg and 537.6 mg): no effect
- Lower Cmax and AUC∞ [9]: substantially (72-77%) lower Cmax

Structure (SMILES): COc1cc2c(cc1O)C1c3ccccc3CCCC1N(C)CC2 (stereo not drawn) [CH2/2/trans/CH3O/OH]
- CAR (MED) ([3]; sc): 10 (sc)
- Ki [1]: > 100 µM
- Ki [2]: 0.292 µM

Structure (SMILES): CN1CCc2cc(Cl)c(O)cc2[C@@H]2c3ccccc3CC[C@H]21 [CH2/1/7b(S):7a(R)(+)/Cl/OH]
- CAR (MED) ([3]; po): >30 (po)

Structure (SMILES): CN1CCc2cc(Cl)c(O)cc2[C@H]2c3ccccc3CC[C@@H]21 [CH2/1/7b(R):7a(S)(−)/Cl/OH]
- CAR (MED) ([3]; po): 30 (po)

Structure (SMILES): CN1CCc2ccc(O)cc2C2c3ccccc3OCC21 (stereo not drawn) [O/1/trans/H/OH]
- Ki [2]: 0.121 µM

Structure (SMILES): CN1CCc2cc(Cl)c(O)cc2[C@H]2c3ccccc3CC[C@@H]21.Cl [Ecopipam HCl]
- solubility at 24 h ([10]; pH 1.2, simulated gastric fluid, pH 1.2 HCl buffer, 50 mM, up to 24 hours, final pH 1.23): 1.56 mg/mL
- solubility at 24 h ([10]; pH 1.61, fassgf or other biorelevant, FaSSGF, final pH 1.61): 2 mg/mL
- solubility at 24 h ([10]; pH 3, aqueous buffer, pH 3.0 citrate buffer, 100 mM, up to 24 hours, final pH 2.96): 9.4 mg/mL
- solubility at 24 h ([10]; pH 3, aqueous buffer, pH 3.0 phthalate buffer, 50 mM, up to 24 hours, final pH 3.05): 0.008 mg/mL
- solubility at 24 h ([10]; pH 4.5, aqueous buffer, pH 4.5 acetate buffer, 50 mM, up to 24 hours, final pH 4.50): 3.3 mg/mL
- solubility at 24 h ([10]; pH 5.5, aqueous buffer, pH 5.5 acetate buffer, 50 mM, up to 24 hours, final pH 5.49): 0.23 mg/mL
- solubility at 24 h ([10]; pH 5.84, fessif, FeSSIF-V2, final pH 5.84): 0.66 mg/mL
- solubility at 24 h ([10]; pH 6.49, fassif, FaSSIF-V2, final pH 6.49): 0.05 mg/mL
- solubility at 24 h ([10]; pH 6.8, aqueous buffer, pH 6.8 phosphate buffer, 50 mM, up to 24 hours, final pH 6.85): 0.02 mg/mL
- Solubility ([10]; FaSSGF, final pH 1.61): 2.02 mg/mL
- XRPD (crystalline form after solubility test) ([10]; FaSSIF-V2): Changed
- XRPD (crystalline form after solubility test) ([10]; FeSSIF-V2): Changed
- Time stable in bio-relevant media ([10]; bio-relevant media at 37° C., degradation occurred from 3 hours): up to 1 hour
- Purity at 24 hours in solubility test ([10]; pH 1.2 HCl buffer, 50 mM): 99.87%
- XRPD (crystalline form after solubility test) ([10]; pH 3.0 citrate buffer, 100 mM): did not exhibit a change in crystallinity
- Purity at 24 hours in solubility test ([10]; pH 3.0 citrate buffer, 100 mM): 99.87%
- Solubility ([10]; pH 3.0 citrate buffer, 100 mM, up to 24 hours, final pH 2.96): 9.42 mg/mL
- XRPD (crystalline form after solubility test) ([10]; pH 3.0 phthalate buffer, 50 mM): Changed
- XRPD (crystalline form after solubility test) ([10]; pH 4.5 acetate buffer, 50 mM): Changed
- Purity at 24 hours in solubility test ([10]; pH 4.5 acetate buffer, 50 mM): 99.85%
- XRPD (crystalline form after solubility test) ([10]; pH 5.5 acetate buffer, 50 mM): Changed
- Purity at 24 hours in solubility test ([10]; pH 5.5 acetate buffer, 50 mM): 100.00%
- XRPD (crystalline form after solubility test) ([10]; pH 6.8 phosphate buffer, 50 mM): Changed
- Purity at 24 hours in solubility test ([10]; pH 6.8 phosphate buffer, 50 mM): 100.00%

Structure (SMILES): Oc1cc2c(cc1Cl)CCNC1CCc3ccccc3C21 (stereo in doubt) [EBS-101-40853]
- Reduction of first pass metabolite concentration vs oral dosage form for oral systemic administration [11]: 48-55%
- Geometric mean AUC ratio of plasma analyte to plasma total radioactivity ([4]; human, in vivo, po, 200 mg): 0.00178
- Percentage of dose excreted in urine as analyte (geometric mean) ([4]; in vivo, po): 0.0645%
- Share of radioactivity in plasma ([4]; in vivo, po): 0.26%
- Geometric mean apparent terminal elimination half-life (t½) of analyte ([4]; in vivo, po, 200 mg): 25.6 h
- Geometric mean renal clearance ([4]; in vivo, po, 200 mg): 1.53 L/h

Structure (SMILES): CN1CCc2cc(Cl)c(O)cc2C2c3ccccc3CCC21 (stereo not drawn) [CH2/1/trans/Cl/OH]
- CAR (MED) ([3]; po): 30 (po);
- CAR (MED) ([3]; sc): 0.3 (sc)

Structure (SMILES): CN1CCc2cc(Cl)c(O[C@@H]3O[C@H](C(=O)O)[C@@H](O)[C@H](O)[C@H]3O)cc2C2c3ccccc3CCC21 (stereo partly drawn) [ecopipam glucuronide, ecopipam O-β-D-glucuronide]
- Lower Cmax [5]: 23%
- Share of radioactivity in plasma [4, 17]: 80%
- Share of radioactivity in the urine [4, 17]: 67%
- Lower Cmax [12]: 15%
- Ratio of SL/oral AUC [13, 18]: 0.15
- Ratio of SL/oral Cmax [13, 18]: 0.24
- Reduction of first pass metabolite concentration vs oral dosage form for oral systemic administration ([13]; sublingual / intraoral dosage form): 76-85% and 75-85%
- Lower Cmax [9]: 22%
